# According to ChEMBL document CHEMBL3046015, “Structure-dependent phytotoxicity of catechins and other flavonoids: flavonoid conversions by cell-free protein extracts of Centaurea maculosa (spotted knapweed) roots” (J Agric Food Chem, 2003):
# Active and inactive are the calls of the source. The calls are words filed in the database; no cut-off is given here.
# Tests used:
# Centaurea diffusa [1] = assay: Phytotoxicity in Centaurea diffusa assessed as inhibition of shoot differentiation at 250 ug/mL measured on day 14 relative to untreated control; assay type: functional, organism-based
# Bassia scoparia [2] = assay: Phytotoxicity in Bassia scoparia assessed as inhibition of root differentiation at 250 ug/mL measured on day 14 relative to untreated control; assay type: functional, organism-based
# Bassia scoparia [3] = assay: Phytotoxicity in Bassia scoparia assessed as inhibition of seed germination at 250 ug/mL measured on day 14 relative to untreated control; assay type: functional, organism-based
# Centaurea maculosa [4] = assay: Phytotoxicity in Centaurea maculosa assessed as inhibition of root differentiation at 250 ug/mL measured on day 14 relative to untreated control; assay type: functional, organism-based
# [5] = tested on: Linaria genistifolia subsp. dalmatica; assay: Phytotoxicity in Linaria genistifolia subsp. dalmatica assessed as inhibition of root differentiation at 250 ug/mL measured on day 14 relative to untreated control; assay type: functional, organism-based
# [6] = tested on: Linaria genistifolia subsp. dalmatica; assay: Phytotoxicity in Linaria genistifolia subsp. dalmatica assessed as inhibition of shoot differentiation at 250 ug/mL measured on day 14 relative to untreated control; assay type: functional, organism-based
# Centaurea maculosa [7] = assay: Phytotoxicity in Centaurea maculosa assessed as inhibition of seed germination at 250 ug/mL measured on day 14 relative to untreated control; assay type: functional, organism-based
# Centaurea diffusa [8] = assay: Phytotoxicity in Centaurea diffusa assessed as inhibition of seed germination at 250 ug/mL measured on day 14 relative to untreated control; assay type: functional, organism-based
# Bassia scoparia [9] = assay: Phytotoxicity in Bassia scoparia assessed as inhibition of shoot differentiation at 250 ug/mL measured on day 14 relative to untreated control; assay type: functional, organism-based
# Centaurea maculosa [10] = assay: Phytotoxicity in Centaurea maculosa assessed as inhibition of shoot differentiation at 250 ug/mL measured on day 14 relative to untreated control; assay type: functional, organism-based
# [11] = tested on: Linaria genistifolia subsp. dalmatica; assay: Phytotoxicity in Linaria genistifolia subsp. dalmatica assessed as inhibition of seed germination at 250 ug/mL measured on day 14 relative to untreated control; assay type: functional, organism-based
# Centaurea diffusa [12] = assay: Phytotoxicity in Centaurea diffusa assessed as inhibition of root differentiation at 250 ug/mL measured on day 14 relative to untreated control; assay type: functional, organism-based
# Triticum aestivum [13] = assay: Phytotoxicity in Triticum aestivum (wheat) assessed as inhibition of seed germination at 250 ug/mL measured on day 14 relative to untreated control; assay type: organism-based; details: in vivo
# Centaurea maculosa [14] = assay: Phytotoxicity in Centaurea maculosa assessed as increase in mortality at 50 ug/mL measured on day 14 relative to untreated control; assay type: functional, organism-based
# Solanum lycopersicum [15] = assay: Phytotoxicity in Solanum lycopersicum (tomato) assessed as increase in mortality at 50 ug/mL measured on day 14 relative to untreated control; assay type: organism-based; details: in vivo
# Triticum aestivum [16] = assay: Phytotoxicity in Triticum aestivum (wheat) assessed as increase in mortality at 50 ug/mL measured on day 14 relative to untreated control; assay type: functional, organism-based
# [17] = tested on: Linaria genistifolia subsp. dalmatica; assay: Phytotoxicity in Linaria genistifolia subsp. dalmatica assessed as inhibition of seed germination at 50 ug/mL measured on day 14 relative to untreated control; assay type: functional, organism-based
# Bassia scoparia [18] = assay: Phytotoxicity in Bassia scoparia assessed as increase in mortality at 50 ug/mL measured on day 14 relative to untreated control; assay type: functional, organism-based
# Bassia scoparia [19] = assay: Phytotoxicity in Bassia scoparia assessed as inhibition of seed germination at 50 ug/mL measured on day 14 relative to untreated control; assay type: functional, organism-based
# Centaurea maculosa [20] = assay: Phytotoxicity in Centaurea maculosa assessed as inhibition of seed germination at 50 ug/mL measured on day 14 relative to untreated control; assay type: functional, organism-based
# Centaurea diffusa [21] = assay: Phytotoxicity in Centaurea diffusa assessed as inhibition of seed germination at 50 ug/mL measured on day 14 relative to untreated control; assay type: functional, organism-based
# Triticum aestivum [22] = assay: Phytotoxicity in Triticum aestivum (wheat) assessed as inhibition of seed germination at 50 ug/mL measured on day 14 relative to untreated control; assay type: functional, organism-based
# [23] = tested on: Linaria genistifolia subsp. dalmatica; assay: Phytotoxicity in Linaria genistifolia subsp. dalmatica assessed as increase in mortality at 50 ug/mL measured on day 14 relative to untreated control; assay type: functional, organism-based
# Centaurea diffusa [24] = assay: Phytotoxicity in Centaurea diffusa assessed as increase in mortality at 50 ug/mL measured on day 14 relative to untreated control; assay type: functional, organism-based
# Arabidopsis thaliana = assay: Phytotoxicity in Arabidopsis thaliana assessed as increase in mortality at 250 ug/mL measured on day 14 relative to untreated control; assay type: organism-based; details: in vivo
# Triticum aestivum [25] = assay: Phytotoxicity in Triticum aestivum (wheat) assessed as increase in mortality at 250 ug/mL measured on day 14 relative to untreated control; assay type: functional, organism-based
# Solanum lycopersicum [26] = assay: Phytotoxicity in Solanum lycopersicum (tomato) assessed as increase in mortality at 250 ug/mL measured on day 14 relative to untreated control; assay type: organism-based; details: in vivo
# [27] = tested on: Linaria genistifolia subsp. dalmatica; assay: Phytotoxicity in Linaria genistifolia subsp. dalmatica assessed as increase in mortality at 250 ug/mL measured on day 14 relative to untreated control; assay type: functional, organism-based
# Bassia scoparia [28] = assay: Phytotoxicity in Bassia scoparia assessed as increase in mortality at 250 ug/mL measured on day 14 relative to untreated control; assay type: functional, organism-based
# Centaurea diffusa [29] = assay: Phytotoxicity in Centaurea diffusa assessed as increase in mortality at 250 ug/mL measured on day 14 relative to untreated control; assay type: functional, organism-based
# Centaurea maculosa [30] = assay: Phytotoxicity in Centaurea maculosa assessed as increase in mortality at 250 ug/mL measured on day 14 relative to untreated control; assay type: functional, organism-based
Compound,inhibition (Centaurea diffusa [1]),inhibition (Bassia scoparia [2]),inhibition (Bassia scoparia [3]),inhibition (Centaurea maculosa [4]),inhibition [5],inhibition [6],inhibition (Centaurea maculosa [7]),inhibition (Centaurea diffusa [8]),inhibition (Bassia scoparia [9]),inhibition (Centaurea maculosa [10]),inhibition [11],inhibition (Centaurea diffusa [12]),inhibition (INH) (Triticum aestivum [13]),other results
O=C1C[C@@H](c2ccc(O)cc2)Oc2cc(O)cc(O)c21 [NARINGENIN],inactive,inactive,inactive,inactive,inactive,inactive,inactive,inactive,inactive,inactive,inactive,inactive,Non-toxic,–
Oc1cc(O)c2c(c1)O[C@@H](c1ccc(O)c(O)c1)[C@@H](O)C2 [(+)-EPICATECHIN],Active,Active,Active,Active,Active,Active,Active,Active,Active,Active,Active,Active,Toxic,–
Oc1cc(O)c2c(c1)O[C@@H](c1ccc(O)c(O)c1)[C@H](O)C2 [(-)-CATECHIN],–,–,–,–,–,–,–,–,–,–,–,–,–,inhibition (Centaurea maculosa [14]): inactive; inhibition (INH) (Solanum lycopersicum [15]): Toxic; inhibition (Triticum aestivum [16]): Active; inhibition [17]: Active; inhibition (Bassia scoparia [18]): Active; inhibition (Bassia scoparia [19]): Active; inhibition (Centaurea maculosa [20]): inactive; inhibition (Centaurea diffusa [21]): Active; inhibition (Triticum aestivum [22]): Active; inhibition [23]: Active; inhibition (Centaurea diffusa [24]): Active
O=c1c(O)c(-c2ccc(O)c(O)c2)oc2cc(O)cc(O)c12 [QUERCETIN],inactive,inactive,inactive,inactive,inactive,inactive,inactive,inactive,inactive,inactive,inactive,inactive,Non-toxic,–
Oc1cc(O)c2c(c1)O[C@H](c1ccc(O)c(O)c1)[C@H](O)C2 [(-)-EPICATECHIN],inactive,inactive,inactive,inactive,inactive,inactive,inactive,inactive,inactive,inactive,inactive,inactive,Non-toxic,–
O=C1c2c(O)cc(O)cc2OC(c2ccc(O)c(O)c2)C1O (racemic) [TAXIFOLIN],–,–,Active,–,–,–,inactive,Active,–,–,Active,–,Toxic,inhibition (INH) (Arabidopsis thaliana): Toxic; inhibition (Triticum aestivum [25]): Active; inhibition (INH) (Solanum lycopersicum [26]): Toxic; inhibition [27]: Active; inhibition (Bassia scoparia [28]): Active; inhibition (Centaurea diffusa [29]): Active; inhibition (Centaurea maculosa [30]): inactive
O=c1c(O)c(-c2ccc(O)cc2)oc2cc(O)cc(O)c12 [KAEMPFEROL],–,–,Active,–,–,–,inactive,Active,–,–,Active,–,Toxic,inhibition (INH) (Arabidopsis thaliana): Toxic; inhibition (Triticum aestivum [25]): Active; inhibition (INH) (Solanum lycopersicum [26]): Toxic; inhibition [27]: Active; inhibition (Bassia scoparia [28]): Active; inhibition (Centaurea diffusa [29]): Active; inhibition (Centaurea maculosa [30]): inactive
